The subject of data set [1] is Ascaris suum antigen-induced asthmatic response in conscious sheep. As to the kind of experiment: Ascaris suum antigen-induced asthmatic response in conscious sheep. The format is in vivo. To be noted: for early airway response (0-2 h after antigen challenge) / late airway response (6-8 h after antigen challenge): n=2 sheep/group. On the procedure: The efficacy of Compound 17 for the treatment of asthma was evaluated in a validated model of Ascaris suum antigen-induced asthmatic response in conscious sheep (Abraham, W. M., Pharmacology of allergen-induced early and late airway responses and antigen-induced airway hyperresponsiveness in allergic sheep, Pulmonary Pharmacology, 1989, 2, 33-40).
Baseline (BSL) dose response curves to aerosol carbachol were obtained from historical control responses prior to antigen challenge. Baseline values of specific lung resistance (SRL) were obtained and the sheep were then given a specified amount (mg) of the test compound as an inhaled aerosol or as a oral dose at a specified time before antigen challenge. Post-drug measurements of SRL were obtained and the sheep were then challenged with Ascaris suum antigen. Measurements of SRL were obtained immediately after challenge, hourly from 1-6 h after challenge and on the half-hour from 6½-8 h after challenge. Measurements of SRL were obtained 24 h after challenge followed by a 24 h post-challenge with carbachol to measure airway hyperreactivity.
Compound 17 was administered as an aerosol at 4.5 mg/dose (ca. 0.1 mg/Kg/dose, based on a 45 Kg sheep), twice-a-day (BID) for three consecutive days, followed by a dose on day 4, 0.5 h prior to antigen challenge. Ascaris suum antigen challenge was given at the zero time point.
Compound 17 was administered as an oral solution at 15 mg/Kg/dose, twice-a-day (BID) for three consecutive days, followed by a dose on day 4, 2 h prior to antigen challenge. Ascaris suum antigen challenge was given at the zero time point.

Data set [2] concerns angiotensin II activity. The following applies: human vascular extracts; cited from earlier work.
The nature of data set [3]: Pharmacokinetic assay for evaluation of oral absorption potential. It is filed as in vivo. To be noted: male Sprague Dawley rats, oral gavage 15 mg/kg in 20% hydroxy-beta-cyclo dextran, plasma, N = 2; for Cmax at 2 h: rat. On the procedure: Male Sprague Dawley rats, weighing 250-300 g, were fasted overnight then dosed by oral gavage at a level of 15 mg/kg with a compound. Compounds were formulated in 20% hydroxy-beta-cyclo dextran.
Blood samples (0.5 mL) were collected into lithium heparinized tubes at 0.5, 1.0 and 2.0 h post dose via orbital sinus puncture. Blood samples were centrifuged at 2000 rpm for ˜3 min for cell removal, approximately 200 μL of plasma supernatant was then transferred to a clean vial, frozen then placed on dry ice and delivered to SFBC Analytical Labs, Inc. for analysis.
Plasma samples were prepared as follows. Two hundred microliters of acetonitrile containing 1 μM internal standard was added to 100 μL of plasma to precipitate proteins. Samples were centrifuged at 5000 g for 5 min and supernatant removed for analysis by LC-MS. Two hundred microliters of water was added to adjust sample solvent strength and prevent peak splitting. Calibration standards were prepared by adding appropriate volumes of stock solution directly into plasma and treated identically to collected plasma samples. Calibration standards were prepared in the range of 0.1 to 10 μM for quantitation. LC-MS analysis was performed using MRM (Multiple Reaction Monitoring) detection of characteristic ions for each drug candidate and internal standard.

For data set [4], the target named is T1, human skin chymase (Homo sapiens, UniProt P23946).
T1 construct: using human skin chymase (Cortex Biochem); purchased Cortex Biochem
T1 sequence (P23946 22-247): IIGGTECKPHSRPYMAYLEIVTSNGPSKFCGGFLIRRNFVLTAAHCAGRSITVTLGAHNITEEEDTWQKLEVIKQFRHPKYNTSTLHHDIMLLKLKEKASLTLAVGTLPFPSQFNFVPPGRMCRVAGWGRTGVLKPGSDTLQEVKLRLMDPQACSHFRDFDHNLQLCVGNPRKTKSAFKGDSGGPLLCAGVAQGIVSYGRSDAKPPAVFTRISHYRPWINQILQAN
As to the kind of experiment: Enzyme-catalyzed hydrolysis assay (chymase inhibition). It is filed as biochemical. To be noted: 10 nM enzyme, 0.7 mM Suc-Ala-Ala-Pro-Phe-pNa, pH 8.0, 37° C., 30 minutes.

Where [5] appears, read: aerosol 4.5 mg/dose BID for three days plus dose on day 4, 0.5 h prior to antigen challenge, FIG. 1.
[6] abbreviates: oral solution 15 mg/Kg/dose BID for three days plus dose on day 4, 2 h prior to antigen challenge, FIG. 3.

On to `CP(=O)(O)C(C(=O)N/C=C/c1ccc(F)c(F)c1)c1csc2ccc(Cl)cc12` (stereo not drawn) [Cpd 17], for which the “early airway response (0-2 h after antigen challenge)” value in data set [1] (setting [5]) and in data set [1] (setting [6]) was “unchanged” in each case. The “late airway response (6-8 h after antigen challenge)” value in data set [1] (setting [5]) and in data set [1] (setting [6]) was “completely blocked” each time. For the same molecule, the “delayed airway hyperreactivity at 24 h post antigen challenge (carbachol challenge)” value in data set [1] (aerosol administration, FIG. 2) is “completely blocked”; in data set [1] (oral administration, FIG. 4) it was “completely blocked”. For `NCCCC[C@H](N[C@@H](CCc1ccccc1)C(=O)O)C(=O)N1CCC[C@H]1C(=O)O` [lisinopril], the “angiotensin II activity inhibited” value in data set [2] is on record as “about 8%”. Usually Cmax stands for the peak of the concentration-time curve. Consider `CC(C)(C)C(=O)OCOP(=O)(O)C(C(=O)N/C=C/c1ccc(F)c(F)c1)c1csc2ccc(Cl)cc12` (stereo not drawn) [Cpd 187, 2,2-Dimethyl-propionic acid {(5-chloro-benzo[b]thiophen-3-yl)-[2-(3,4-difluoro-phenyl)-vinylcarbamoyl]-methyl}-hydroxy-phosphinoyloxymethyl ester], for which, in data set [3], the peak level (Cmax at 2 h) was 21.4 ± 11 µM.

In data set [3], `O=C(N/C=C/c1ccc(F)c(F)c1)C(c1csc2ccc(Cl)cc12)P1(=O)OCCCO1` (stereo not drawn) [Cpd 189, 2-(5-Chloro-benzo[b]thiophen-3-yl)-N-[2-(3,4-difluoro-phenyl)-vinyl]-2-(2-oxo-2,5-[1,3,2]dioxaphosphinan-2-yl)-acetamide] gave a Cmax at 2 h of 21.1 ± 2.3 µM. The same measure, in the same setting: to `CC(C)(C)C(=O)OCOP(=O)(OCOC(=O)C(C)(C)C)C(C(=O)N/C=C/c1ccc(F)c(F)c1)c1csc2ccc(Cl)cc12` (stereo not drawn) [Cpd 186, 2,2-Dimethyl-propionic acid {(5-chloro-benzo[b]thiophen-3-yl)-[2-(3,4-difluoro-phenyl)-vinylcarbamoyl]-methyl}-(2,2-dimethyl-propionyloxymethoxy)-phosphinoyloxymethyl ester] belongs 20.1 ± 3.5 µM; to `CC(C)(C)C(=O)OCOP(C)(=O)C(C(=O)N/C=C/c1ccc(F)c(F)c1)c1csc2ccc(Cl)cc12` (stereo not drawn) [Cpd 182], 11.8 ± 3.26 µM. The same measure, in the same setting: next, `CCN(CC)C(=O)COP(=O)(OCC(=O)N(CC)CC)C(C(=O)N/C=C/c1ccccc1)c1cccc2ccccc12` (stereo not drawn) [Cpd 180, (Naphthalen-1-yl-styrylcarbamoyl-methyl)-phosphonic acid didiethylcarbamoylmethyl ester]: under 0.1 µM; `CC(C)(C)C(=O)OCOP(=O)(O)C(C(=O)N/C=C/c1ccccc1)c1cccc2ccccc12` (stereo not drawn) [Cpd 177]: 2 ± 1.1 µM; `CCN(CC)C(=O)COP(C)(=O)C(C(=O)NC=Cc1ccc(F)c(F)c1)c1csc2ccc(Cl)cc12` (stereo not drawn) [Cpd 185, {(5-Chloro-benzo[b]thiophen-3-yl)-[2-(3,4-difluoro-phenyl)-vinylcarbamoyl]-methyl}-methyl-phosphinic acid diethylcarbamoylmethyl ester]: 2.1 ± 0.23 µM. Turning to `O=C(NC=Cc1ccccc1)C(c1cccc2ccccc12)P1(=O)OCCCO1` (stereo not drawn) [Cpd 178, 2-Naphthalen-1-yl-2-(2-oxo-2l5-[1,3,2]dioxaphosphinan-2-yl)-N-styryl-acetamide], in data set [3] (read-out: CMax (μM) @ 2 h), the Cmax turned out to be 4.1 ± 0.28 µM. Usually IC50 stands for the concentration needed to halve the response being measured. Low readings indicate higher potency, high ones lower potency. As for `CN(C(=O)c1cc2ccccc2cc1NC(=O)C(c1cccc2ccccc12)P(=O)(O)O)C1CC=C(c2ccccc2)CC1` (stereo not drawn) [Cpd 46, ({3-[Methyl-(4-phenyl-cyclohex-3-enyl)-carbamoyl]-naphthalen-2-ylcarbamoyl}-naphthalen-1-yl-methyl)-phosphonic acid], half-maximal inhibition in data set [4] (IC50) required 0.388 ± 0.116 µM. Regarding `CP(=O)(OCCN)C(C(=O)NC=Cc1ccc(F)c(F)c1)c1csc2ccc(Cl)cc12` (stereo not drawn) [Cpd 184, {(5-Chloro-benzo[b]thiophen-3-yl)-[2-(3,4-difluoro-phenyl)-vinylcarbamoyl]-methyl}-methyl-phosphinic acid 2-amino-ethyl ester], the highest level in data set [3] (Cmax at 2 h) was 0.1 ± 0.05 µM. Molecule `O=C(Nc1ccc2ccccc2c1)C(c1nnn[nH]1)c1csc2ccc(Cl)cc12` (stereo not drawn) [Cpd 88, 2-(5-Chloro-benzo[b]thiophen-3-yl)-n-naphthalen-2-yl-2-(1h-tetrazol-5-yl)-acetamide] gave an IC50 in data set [4] of 2.04 ± 0.19 µM.

The values are drawn from patent US7459444B2, “Inhibitors of chymase” (Janssen Pharmaceutica N.V., priority 2004, dated 2008).
